Results as given in US12215085B2 (priority 2019, dated 2025).

How the values were obtained:
[1] = Physical and chemical stability (XRPD, HPLC); assay type: physicochemical
Protocol: • (1) The physical and chemical stability evaluations were performed after Crystal Form A was placed in a closed condition at 80° C. for 24 hours. • (2) The physical and chemical stability evaluations were performed after Crystal Form A was placed in an open condition at 25° C./60% relative humidity and 40° C./75% relative humidity respectively for one week.
The physical and chemical stabilities of the samples were tested by XRPD and HPLC.

[2] = Dynamic moisture sorption (DVS) hygroscopicity; assay type: physicochemical; conditions: 25° C.; begins to significantly absorb water at 90% relative humidity
Protocol: In order to evaluate the stability of Crystal Form A under different humidity conditions, a dynamic moisture sorption (DVS) test was carried out on the sample of Crystal Form A under the constant temperature condition of 25° C.

[3] = test system: rats with beta-amyloid induced senile dementia; experiment: Brain pathological examination, beta-amyloid induced senile dementia rats; assay type: in vivo, rat
Wistar rats = experiment: Long-term toxicity, 27 weeks, Wistar rats
Excerpt: 120 Wistar rats were used, 30 rats per group, wherein half of them were males and half were females. The administration route was ig administration, once per day, 6-day administration per week, and a 27-week test period.

[4] = 24 hours equilibrium solubility in water; assay type: physicochemical; conditions: thermodynamic from solid, room temperature, initial concentration about 100 mg/mL, read-out: 24 hours equilibrium solubility in H2O
Protocol: Step: 24 hours equilibrium solubility of the sample of Crystal Form A in water was tested at room temperature. In the experiment, after mixing the sample of crystal form with water to form a suspension (initial concentration was about 100 mg/mL), the stirring was carried out for 24 hours (1000 rpm) at room temperature, a supernatant obtained from the centrifugation was filtered and the solubility was measured, and the residual solid was subjected to the XRPD test.

mouse = experiment: Acute toxicity LD50, mouse; conditions: clinical daily dosage 8 mg/60 kg human/day, per kilogram body weight
[5] = Acute toxicity LD50, mouse; conditions: in vivo, po
[6] = test system: rats with common carotid artery occlusion-induced vascular dementia; experiment: Brain pathological examination, common carotid artery occlusion-induced vascular dementia rats; assay type: in vivo, rat; conditions: 1.4 mg/kg and 2.8 mg/kg
[7] = test system: rats with beta-amyloid induced senile dementia; experiment: Step-down test, beta-amyloid induced senile dementia rats; assay type: in vivo, rat; conditions: 2.8 mg/kg, P<0.05
mice = experiment: General pharmacological study in mice; assay type: in vivo

Nc1c2c(nc3c1CCCC3)CCCC2.O=C(O)CCC(=O)O [Crystal Form A, 9-amino-1,2,3,4,5,6,7,8-octahydroacridine succinate]
crystal form after storage (XRPD) ([1]; 80° C. closed 24 hours, 25° C./60% relative humidity and 40° C./75% relative humidity open one week): unchanged
chemical purity after storage (HPLC) ([1]; all three test conditions: 80° C. closed 24 hours, 25° C./60% RH and 40° C./75% RH open one week): unchanged
DVS weight gain [2]: up to 5.2%
pathological damage of cerebral cortex and hippocampus caused by beta-amyloid ([3]; high-dose group (2.8 mg/kg)): could relieve the pathological damage
pathological changes of cortex and hippocampus compared with the model group ([3]; low and medium-dose groups (0.7 and 1.4 mg/kg)): no obvious difference
toxic target organ for long-term administration (Wistar rats; 27 weeks intragastric): could be the liver, but reversible
animals died (Wistar rats; high-dose group 30 mg/kg, 27 weeks): 5 animals
non-toxic reaction dose (Wistar rats; intragastric, 27 weeks): 15 mg/kg
body weight of male and female rats vs control group (Wistar rats; rat, in vivo): obviously reduced
electrocardiogram PR interval, QRS interval, QT interval, T wave, heart rate vs control group (Wistar rats; rat, in vivo): no significant difference
general and microscopic examination of all organs (Wistar rats; rat, in vivo): No obvious pathological changes caused by the drug toxicity
general state, behavioral activity, mental state, fur, urine and feces, food (water) intake (Wistar rats; rat, in vivo): all normal
hematology, blood biochemistry examination and each organ coefficient vs control group (Wistar rats; rat, in vivo): no obvious difference
rats with obvious elevation of the liver function index ALT (Wistar rats; rat, in vivo): 2 rats
solubility thermodynamic at 24 h [4]: 72.9 mg/mL
LD50 as multiple of the clinical daily dosage (mouse): ~499.5 times
LD50 [5]: 66.6 ± 3.3 mg/kg
pathological change of the common carotid artery occlusion-induced vascular dementia [6]: could relieve the pathological change
step-down error number vs model group ([7]; Day 1 and Day 2): obviously reduced
error latency vs model group ([7]; Day 2): obviously prolonged
general state, autonomous activity and coordinated movement of the mice (mice; 4, 8, 16 mg/kg once intragastric): no significant influence
sleep number of animals with subthreshold dose of pentobarbital sodium (mice; 4, 8 and 16 mg/kg once intragastric): no obvious influence
